System: yellow nutsedge
Assay: Field trial, post-emergence control of yellow nutsedge (Blacksburg, Va.)
Format: in vivo, Cyperus esculentus
Details: for Yellow nut sedge (Percentage weed cover), 05/07 / Yellow nut sedge (Percentage weed cover), 13/06 / Yellow nut sedge (Percentage weed cover), 20/6 / Yellow nut sedge (Percentage Control), 05/07 / Yellow nut sedge (Percentage Control), 13/06 / Yellow nut sedge (Percentage Control), 20/6: post-emergence field plots, dosage 1X single, 0.5X two-way; for Yellow nut sedge (Percentage weed cover), 05/07: rating date 05/07 (29 DAT), untreated 59; for Yellow nut sedge (Percentage weed cover), 05/07 / Yellow nut sedge (Percentage weed cover), 13/06 / Yellow nut sedge (Percentage weed cover), 20/6 / Yellow nut sedge (Percentage Control), 05/07 / Yellow nut sedge (Percentage Control), 20/6: 0.33X three-way; for Yellow nut sedge (Percentage weed cover), 13/06: rating date 13/06, untreated 50; for Yellow nut sedge (Percentage weed cover), 20/6: rating date 20/6, untreated 49; for Yellow nut sedge (Percentage Control), 05/07: trial initiated June 6, rating date 05/07 (29 DAT); for Yellow nut sedge (Percentage Control), 13/06: trial initiated June 6, rating date 13/06, 0.33X three-way (rates Table 2); for Yellow nut sedge (Percentage Control), 20/6: trial initiated June 6, rating date 20/6; for Burn down / residual control of sedges, result in words: speed of burn down, onset of plant necrosis
Protocol: An exemplary combination according to the invention was used for sedge and broadleaf weed control for agricultural crops, turf, ornamentals, and landscape. The exemplary combination was used for the post-emergence control of sedges, as well as the control/suppression of various broadleaf and grassy weeds.
A field trial was conducted to evaluate the effectiveness of the combinations of three active ingredients according to the invention when used post emergence, at different rates, compared to industry standards—stand alone and 2 way mixture of compounds for efficacy of yellow nutsedge. The active ingredient combination used in the trial was bentazon+halosulfuron+sulfentrazone. The trial was conducted in Blacksburg, Va. and was initiated on June 6 under Protocol #BRLM-62-US-VA-18-10-BTC. The plots were in fallow area primarily covered with yellow nutsedge and tall fescue, and were sprayed at 4 week intervals. (2 applications total). The application dosages of the herbicides, when used in isolation and when used in the combinations were as follows: […]

| SMILES | Yellow nut sedge (Percentage weed cover), 05/07 | Yellow nut sedge (Percentage weed cover), 13/06 | Yellow nut sedge (Percentage weed cover), 20/6 | Yellow nut sedge (Percentage Control), 05/07 | Yellow nut sedge (Percentage Control), 13/06 | Yellow nut sedge (Percentage Control), 20/6 | Weed control of yellow nutsedge, result in words (post-emergence field trial, compared to individual products and 2 way mixes) | Burn down / residual control of sedges, result in words |
| --- | --- | --- | --- | --- | --- | --- | --- | --- |
| CC(C)N1C(=O)c2ccccc2NS1(=O)=O [Bentazone] | 10% | 40% | 8% | 76% | 65% | 75% | did not provide sufficient weed control | fairly rapid burn down of some of the sedges |
| COC(=O)c1c(Cl)nn(C)c1S(=O)(=O)NC(=O)Nc1nc(OC)cc(OC)n1 [Halosulfuron, Halosulfuron-methyl] | 8% | 50% | 16% | 81% | 36% | 60% | – | delayed response of up to four weeks before plant necrosis began |
| Cc1nn(-c2cc(NS(C)(=O)=O)c(Cl)cc2Cl)c(=O)n1C(F)F [Sulfentrazone] | 9% | 44% | 11% | 75% | 58% | 73% | – | fairly rapid burn down of some of the sedges |
